Data reported in patent US20150299250A1, “MACROCYCLIC COMPOUNDS AND USES THEREOF” (ADELAIDE RESEARCH & INNOVATION PTY LTD, priority 2012, published 2015).
Where a SMILES comes first, the peptide text is derived from it. The star is where a group is joined. Cbz = O=C(OCc1ccccc1)*

Tests used:
[1] = system: normal cell lines (fibroblasts, osteoblasts); assay: Cell viability assay, normal cell lines (average); type: cell-based; conditions: Homo sapiens; average of fibroblasts and osteoblasts
Procedure: (§1) Cell viability assays were performed as previously described. Briefly, cells were seeded in 96 well microtiterplates at a density of 3×10^4 cells per well in the presence of the indicated chemical. Cells were harvested 48 hours post-treatment, centrifuged at 1,300×g, washed in phosphate-buffered saline (PBS) and stained with 7AAD solution (2 μg/mL) (7-amino-actinomycin-D, Invitrogen, Carlsbad, Calif.) for 10 mins at room temperature. Viable cells were determined with the use of a FACS Calibur flow cytometer (Becton Dickinson Immunocytometry Systems), and analyzed with the use of FLOWJO (Tree Star, Inc) and GraphPad Prism (GraphPad Software Inc).
(§2) WE-68 and VH-64 Ewing's sarcoma cells were kindly supplied by F. van Valen (Department of Orthopaedic Surgery, Westfalische-Wilhelms-University, Germany).TC-252 and STA-ET-1 Ewing's sarcoma cells were kindly provided by G. Hamilton (Department of Surgery, University of Vienna, Austria) or P. Ambros (Children's Cancer Research Institute, St Anna Children's Hospital, Vienna, Austria). Primary human embryonic fibroblasts or primary human osteoblasts were collected from the Women's and Children's Hospital (North Adelaide, South Australia, Australia) or Royal Adelaide Hospital with patient consent. Mouse Embryonic Fibroblasts (MEFs) and its p53-null derivative were kindly supplied by Guillermina Lozano (Department of Genetics, Anderson Cancer Centre, University of Texas, Houston, Tex., USA). WE-68 cell lines were grown in RPMI-1640 media, whilst human embryonic fibroblasts and MEFs were grown in Dulbecco's Modified Eagle's Medium (DMEM). Media was supplemented with 10% FCS, 1% PSG and 10 mM HEPES. All cells were maintained at 37° C. in a humidified atmosphere of 5% CO2.

[2] = system: STA-ET-1 Ewing's sarcoma cells; assay: Cell viability assay (7AAD, 48 hours), STA-ET-1; type: cell-based; conditions: 48 hours exposure; read-out: Cancer cell lines IC50 (μM) STA-ET-1
Procedure: as §1, §2

[3] = system: panel of sarcoma cell lines (WE-68, VH-64, STA-ET-1, TC-252); assay: Cell viability assay, panel of four sarcoma cell lines (average); type: cell-based; conditions: for IC50: average of four sarcoma cell lines, read-out: Average IC50 for cancer cell lines; for Therapeutic window: fold change in potency (IC50) against cancer cell line versus normal cell line
Procedure: as §1, §2

[4] = biological target: T1, 20S proteasome CP-L activity (Oryctolagus cuniculus, UniProt A0A5F9DQW2); assay: In vitro proteasome activity assay, CP-L (Z-nLPnLD-AMC); type: biochemical, rabbit; conditions: purified 20S proteasome; highest concentration tested 25,000 nM
T1 construct: Purified rabbit 20S proteasome
T1 sequence (A0A5F9DQW2 1-212): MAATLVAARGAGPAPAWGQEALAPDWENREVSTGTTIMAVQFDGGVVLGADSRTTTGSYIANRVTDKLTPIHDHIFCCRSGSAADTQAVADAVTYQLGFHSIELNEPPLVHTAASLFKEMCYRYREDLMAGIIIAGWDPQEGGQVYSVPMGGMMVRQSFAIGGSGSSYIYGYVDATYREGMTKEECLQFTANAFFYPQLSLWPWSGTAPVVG
Procedure: We initially determined the ability of the novel tripeptide MG132 analogues 1-6 and the macrocycles 3a and 4a to inhibit the three separate protease activities of the 20S proteasome (CT-L, -T-L and CP-L). The assays were performed in vitro using purified 20S proteasome/inhibitor mixtures, with the activity of each subunit of the proteasome assessed upon incubation with its respective target peptide. […] In addition, there is no apparent clear-cut preference for the length of tether (compare compounds 1 to 4), while the introduction of an aryl group at P3 (as in 6) is well tolerated.
Purified rabbit 20S proteasome and fluorogenic CT-L substrate (Suc-LLVY-AMC) were purchased from Boston Biochem (Cambridge, Mass., USA). The T-L and CP-L fluorogenic substrates (Ac-RLR-AMC and Z-nLPnLD-AMC) were purchased from Enzo Life Sciences (Farmingdale, N.Y., USA). The 20S proteasome was diluted to 0.2 μg/μL in 20S proteasome buffer (50 mM HEPES pH 7.6, 150 mM NaCl and 1 mM DDT) and stored at −80° C. Purified 20S proteasome (8 ng) was pre-incubated with the indicated concentrations of inhibitors for 15 minutes and subsequently added to the AMC-labeled substrate peptide (50 μM) in assay buffer (25 mM HEPES, pH 7.5, 0.5 mM EDTA, 0.05% NP-40, and 0.001% SDS (w/v)) at 37° C. for 2 hours. Fluorescent substrate cleavage by the 20S proteasome was linear during this incubation timeframe (Supplementary Figure S4. Hydrolysed 7-amino-4-methylcoumarin (AMC) was subsequently detected with the FLUOstar OPTIMA microplatefluorometer at excitation/emission of 390/460 nm. The activity was estimated in relative fluorescence units and half of the maximal inhibitory activity of the proteasome is represented by IC50 values. A minimum of three biological replicates were performed for each data point.

[5] = system: WE-68 Ewing's sarcoma cells; assay: Cell viability assay (7AAD, 48 hours), WE-68; type: cell-based; conditions: 48 hours exposure; read-out: Cancer cell lines IC50 (μM) WE-68
Procedure: as §1, §2

[6] = biological target: T2, 20S proteasome chymotrypsin-like (CT-L) activity (Oryctolagus cuniculus, UniProt G1T4Q9); assay: In vitro proteasome activity assay, CT-L (Suc-LLVY-AMC); type: biochemical, rabbit; conditions: for IC50: purified 20S proteasome
T2 sequence (G1T4Q9 1-263): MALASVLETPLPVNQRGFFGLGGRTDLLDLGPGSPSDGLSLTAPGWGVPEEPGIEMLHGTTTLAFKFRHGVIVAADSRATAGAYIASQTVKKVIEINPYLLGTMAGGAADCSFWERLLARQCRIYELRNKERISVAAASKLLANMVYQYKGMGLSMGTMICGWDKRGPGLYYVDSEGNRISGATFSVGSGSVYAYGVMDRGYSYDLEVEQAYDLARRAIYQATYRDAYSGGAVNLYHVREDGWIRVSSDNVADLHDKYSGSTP
Procedure: The assays were performed in vitro using purified 20S proteasome/inhibitor mixtures, with the activity of each subunit of the proteasome assessed upon incubation with its respective target peptide.
Purified rabbit 20S proteasome and fluorogenic CT-L substrate (Suc-LLVY-AMC) were purchased from Boston Biochem (Cambridge, Mass., USA). The T-L and CP-L fluorogenic substrates (Ac-RLR-AMC and Z-nLPnLD-AMC) were purchased from Enzo Life Sciences (Farmingdale, N.Y., USA). The 20S proteasome was diluted to 0.2 μg/μL in 20S proteasome buffer (50 mM HEPES pH 7.6, 150 mM NaCl and 1 mM DDT) and stored at −80° C. Purified 20S proteasome (8 ng) was pre-incubated with the indicated concentrations of inhibitors for 15 minutes and subsequently added to the AMC-labeled substrate peptide (50 μM) in assay buffer (25 mM HEPES, pH 7.5, 0.5 mM EDTA, 0.05% NP-40, and 0.001% SDS (w/v)) at 37° C. for 2 hours.

| Structure (SMILES) | IC50 [1] [µM] | IC50 [2] [µM] | IC50 [3] [µM] | Therapeutic window [3] | IC50 [4] [nM] | IC50 [5] [µM] | increase in potency against CT-L relative to compound 4 (Leu at P2) [6] [fold] | IC50 [6] [nM] | more potency against cancer cells over normal cells [3] [fold] |
| --- | --- | --- | --- | --- | --- | --- | --- | --- | --- |
| C#CCOc1ccc(C[C@@H](C=O)NC(=O)[C@@H](NC(=O)[C@H](CCCCN=[N+]=[N-])NC(=O)OCc2ccccc2)[C@@H](C)CC)cc1 [Compound 5] | 12.4 | 1 | 0.88 | ×14.1 | > 25000 | 0.98 | 7.5 | 21 | – |
| C#CCOc1ccc(C[C@@H](C=O)NC(=O)[C@H](CC(C)C)NC(=O)[C@H](CCCN=[N+]=[N-])NC(=O)OCc2ccccc2)cc1 [Compound 3] | 13.8 | 2.6 | 1.6 | ×8.7 | > 25000 | 0.47 | – | 54 | – |
| C#CCOc1ccc(C[C@@H](C=O)NC(=O)[C@H](CC(C)C)NC(=O)[C@H](CCCCN=[N+]=[N-])NC(=O)OCc2ccccc2)cc1 [Compound 4] | 25 | 2.6 | 4.2 | ×5.9 | > 25000 | 10.8 | – | 150 | – |
| CC(C)C[C@@H](C=O)NC(=O)[C@H](CC(C)C)NC(=O)[C@H](CC(C)C)NC(=O)OCc1ccccc1 [MG132, reference compound] (Cbz-Leu-Leu-Leu-aldehyde) | 2.8 | 0.59 | 0.61 | ×4.5 | 545 | 0.68 | – | 1.2 | – |
| C#CCOc1ccc(C[C@@H](C=O)NC(=O)[C@H](CC(C)C)NC(=O)[C@H](Cc2ccc(N=[N+]=[N-])cc2)NC(=O)OCc2ccccc2)cc1 [Compound 6] | 28.5 | 2.4 | 1.5 | ×19.0 | > 25000 | 1.1 | – | 23 | 19 |
| C#CCOc1ccc(C[C@@H](C=O)NC(=O)[C@H](CC(C)C)NC(=O)[C@H](CCN=[N+]=[N-])NC(=O)OCc2ccccc2)cc1 [Compound 2] | 21.5 | 5.4 | 4.3 | ×5.0 | > 25000 | 4.7 | – | 355 | – |
